Test results published in PubChem BioAssay (NCI).
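Where inhibition never reached the appropriate level, the endpoint shown equals the highest concentration tested. Otherwise, values were interpolated linearly from a five-concentration, 48-hour dose response in 96-well plates. TGI: concentration producing complete growth inhibition.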

Test system: K-562 leukemia
Assay: NCI anticancer screen, dose series, 48 h

Row | SMILES | TGI
1 | O=C(O)[C@@H](NS(=O)(=O)c1ccc(F)cc1)c1ccccc1 | > 100 µM
2 | COc1cccc2c1C(=O)c1c(O)c3c(c(O)c1C2=O)C[C@@](O)(C(=O)CO)C[C@@H]3OC1CC(N(C)C)C(O)C(C)O1 (stereo not given in full) | 9.41 µM
3 | COC(=O)N/N=C(/CC1(O)C(=O)Nc2ccc([N+](=O)[O-])cc21)c1ccccc1 (stereo not given) | > 87.2 µM

Test system: IGROV1 ovarian
Assay: NCI anticancer screen, dose series, 48 h

Row | SMILES | TGI
4 | COC(=O)/C(C#N)=C1\CCC(OC)N1 (stereo not given) | > 100 µM
5 | O=C(O)[C@@H](NS(=O)(=O)c1ccc(F)cc1)c1ccccc1 | > 100 µM
6 | COc1cccc2c1C(=O)c1c(O)c3c(c(O)c1C2=O)C[C@@](O)(C(=O)CO)C[C@@H]3OC1CC(N(C)C)C(O)C(C)O1 (stereo not given in full) | 0.183 µM
7 | COC(=O)N/N=C(/CC1(O)C(=O)Nc2ccc([N+](=O)[O-])cc21)c1ccccc1 (stereo not given) | > 73.6 µM

Test system: HOP-62 NSCLC
Assay: NCI anticancer screen, dose series, 48 h

Row | SMILES | TGI
8 | COC(=O)/C(C#N)=C1\CCC(OC)N1 (stereo not given) | > 100 µM
9 | O=C(O)[C@@H](NS(=O)(=O)c1ccc(F)cc1)c1ccccc1 | > 100 µM
10 | COc1cccc2c1C(=O)c1c(O)c3c(c(O)c1C2=O)C[C@@](O)(C(=O)CO)C[C@@H]3OC1CC(N(C)C)C(O)C(C)O1 (stereo not given in full) | 0.272 µM
11 | COC(=O)N/N=C(/CC1(O)C(=O)Nc2ccc([N+](=O)[O-])cc21)c1ccccc1 (stereo not given) | > 90.2 µM

Test system: SR leukemia
Assay: NCI anticancer screen, dose series, 48 h

Row | SMILES | TGI
12 | COc1cccc2c1C(=O)c1c(O)c3c(c(O)c1C2=O)C[C@@](O)(C(=O)CO)C[C@@H]3OC1CC(N(C)C)C(O)C(C)O1 (stereo not given in full) | 0.0188 µM
13 | COC(=O)N/N=C(/CC1(O)C(=O)Nc2ccc([N+](=O)[O-])cc21)c1ccccc1 (stereo not given) | > 68.3 µM

Test system: UACC-257 melanoma
Assay: NCI anticancer screen, dose series, 48 h

Row | SMILES | TGI
14 | COC(=O)/C(C#N)=C1\CCC(OC)N1 (stereo not given) | > 100 µM
15 | O=C(O)[C@@H](NS(=O)(=O)c1ccc(F)cc1)c1ccccc1 | > 100 µM
16 | COc1cccc2c1C(=O)c1c(O)c3c(c(O)c1C2=O)C[C@@](O)(C(=O)CO)C[C@@H]3OC1CC(N(C)C)C(O)C(C)O1 (stereo not given in full) | 0.153 µM
17 | COC(=O)N/N=C(/CC1(O)C(=O)Nc2ccc([N+](=O)[O-])cc21)c1ccccc1 (stereo not given) | > 95.6 µM

Test system: SK-OV-3 ovarian
Assay: NCI anticancer screen, dose series, 48 h

Row | SMILES | TGI
18 | COC(=O)/C(C#N)=C1\CCC(OC)N1 (stereo not given) | > 100 µM
19 | O=C(O)[C@@H](NS(=O)(=O)c1ccc(F)cc1)c1ccccc1 | > 100 µM
20 | COc1cccc2c1C(=O)c1c(O)c3c(c(O)c1C2=O)C[C@@](O)(C(=O)CO)C[C@@H]3OC1CC(N(C)C)C(O)C(C)O1 (stereo not given in full) | 1.76 µM
21 | COC(=O)N/N=C(/CC1(O)C(=O)Nc2ccc([N+](=O)[O-])cc21)c1ccccc1 (stereo not given) | > 100 µM

Test system: SW-620 colon
Assay: NCI anticancer screen, dose series, 48 h

Row | SMILES | TGI
22 | COC(=O)/C(C#N)=C1\CCC(OC)N1 (stereo not given) | > 100 µM
23 | O=C(O)[C@@H](NS(=O)(=O)c1ccc(F)cc1)c1ccccc1 | > 100 µM
24 | COc1cccc2c1C(=O)c1c(O)c3c(c(O)c1C2=O)C[C@@](O)(C(=O)CO)C[C@@H]3OC1CC(N(C)C)C(O)C(C)O1 (stereo not given in full) | 1.38 µM
25 | COC(=O)N/N=C(/CC1(O)C(=O)Nc2ccc([N+](=O)[O-])cc21)c1ccccc1 (stereo not given) | > 69.4 µM

Test system: HL-60(TB) leukemia
Assay: NCI anticancer screen, dose series, 48 h

Row | SMILES | TGI
26 | COC(=O)/C(C#N)=C1\CCC(OC)N1 (stereo not given) | > 100 µM
27 | COc1cccc2c1C(=O)c1c(O)c3c(c(O)c1C2=O)C[C@@](O)(C(=O)CO)C[C@@H]3OC1CC(N(C)C)C(O)C(C)O1 (stereo not given in full) | 0.0206 µM
28 | COC(=O)N/N=C(/CC1(O)C(=O)Nc2ccc([N+](=O)[O-])cc21)c1ccccc1 (stereo not given) | 58.8 µM

Test system: CAKI-1 renal
Assay: NCI anticancer screen, dose series, 48 h

Row | SMILES | TGI
29 | COC(=O)/C(C#N)=C1\CCC(OC)N1 (stereo not given) | > 100 µM
30 | O=C(O)[C@@H](NS(=O)(=O)c1ccc(F)cc1)c1ccccc1 | > 100 µM
31 | COc1cccc2c1C(=O)c1c(O)c3c(c(O)c1C2=O)C[C@@](O)(C(=O)CO)C[C@@H]3OC1CC(N(C)C)C(O)C(C)O1 (stereo not given in full) | 0.0733 µM
32 | COC(=O)N/N=C(/CC1(O)C(=O)Nc2ccc([N+](=O)[O-])cc21)c1ccccc1 (stereo not given) | > 100 µM

Test system: MDA-N
Assay: NCI anticancer screen, dose series, 48 h

Row | SMILES | TGI
33 | COc1cccc2c1C(=O)c1c(O)c3c(c(O)c1C2=O)C[C@@](O)(C(=O)CO)C[C@@H]3OC1CC(N(C)C)C(O)C(C)O1 (stereo not given in full) | 0.0833 µM
34 | COC(=O)N/N=C(/CC1(O)C(=O)Nc2ccc([N+](=O)[O-])cc21)c1ccccc1 (stereo not given) | 94.4 µM

Test system: PC-3 prostate
Assay: NCI anticancer screen, dose series, 48 h

Row | SMILES | TGI
35 | COc1cccc2c1C(=O)c1c(O)c3c(c(O)c1C2=O)C[C@@](O)(C(=O)CO)C[C@@H]3OC1CC(N(C)C)C(O)C(C)O1 (stereo not given in full) | 0.102 µM
36 | COC(=O)N/N=C(/CC1(O)C(=O)Nc2ccc([N+](=O)[O-])cc21)c1ccccc1 (stereo not given) | > 100 µM

Test system: DMS 273 small cell lung
Assay: NCI anticancer screen, dose series, 48 h

Row | SMILES | TGI
37 | COC(=O)/C(C#N)=C1\CCC(OC)N1 (stereo not given) | > 100 µM
38 | O=C(O)[C@@H](NS(=O)(=O)c1ccc(F)cc1)c1ccccc1 | > 100 µM
39 | COc1cccc2c1C(=O)c1c(O)c3c(c(O)c1C2=O)C[C@@](O)(C(=O)CO)C[C@@H]3OC1CC(N(C)C)C(O)C(C)O1 (stereo not given in full) | 0.158 µM
40 | COC(=O)N/N=C(/CC1(O)C(=O)Nc2ccc([N+](=O)[O-])cc21)c1ccccc1 (stereo not given) | > 100 µM

Test system: XF 498 CNS
Assay: NCI anticancer screen, dose series, 48 h

Row | SMILES | TGI
41 | COC(=O)/C(C#N)=C1\CCC(OC)N1 (stereo not given) | > 100 µM
42 | O=C(O)[C@@H](NS(=O)(=O)c1ccc(F)cc1)c1ccccc1 | > 100 µM
43 | COc1cccc2c1C(=O)c1c(O)c3c(c(O)c1C2=O)C[C@@](O)(C(=O)CO)C[C@@H]3OC1CC(N(C)C)C(O)C(C)O1 (stereo not given in full) | 0.0553 µM
44 | COC(=O)N/N=C(/CC1(O)C(=O)Nc2ccc([N+](=O)[O-])cc21)c1ccccc1 (stereo not given) | 46.5 µM

Test system: U251 CNS
Assay: NCI anticancer screen, dose series, 48 h

Row | SMILES | TGI
45 | COC(=O)/C(C#N)=C1\CCC(OC)N1 (stereo not given) | > 100 µM
46 | O=C(O)[C@@H](NS(=O)(=O)c1ccc(F)cc1)c1ccccc1 | > 100 µM
47 | COc1cccc2c1C(=O)c1c(O)c3c(c(O)c1C2=O)C[C@@](O)(C(=O)CO)C[C@@H]3OC1CC(N(C)C)C(O)C(C)O1 (stereo not given in full) | 2.75 µM
48 | COC(=O)N/N=C(/CC1(O)C(=O)Nc2ccc([N+](=O)[O-])cc21)c1ccccc1 (stereo not given) | 76.9 µM

Test system: CCRF-CEM leukemia
Assay: NCI anticancer screen, dose series, 48 h

Row | SMILES | TGI
49 | COC(=O)/C(C#N)=C1\CCC(OC)N1 (stereo not given) | > 100 µM
50 | O=C(O)[C@@H](NS(=O)(=O)c1ccc(F)cc1)c1ccccc1 | > 100 µM
51 | COc1cccc2c1C(=O)c1c(O)c3c(c(O)c1C2=O)C[C@@](O)(C(=O)CO)C[C@@H]3OC1CC(N(C)C)C(O)C(C)O1 (stereo not given in full) | 7.59 µM
52 | COC(=O)N/N=C(/CC1(O)C(=O)Nc2ccc([N+](=O)[O-])cc21)c1ccccc1 (stereo not given) | > 76.6 µM

Test system: UO-31 renal
Assay: NCI anticancer screen, dose series, 48 h

Row | SMILES | TGI
53 | COC(=O)/C(C#N)=C1\CCC(OC)N1 (stereo not given) | > 100 µM
54 | O=C(O)[C@@H](NS(=O)(=O)c1ccc(F)cc1)c1ccccc1 | > 100 µM
55 | COc1cccc2c1C(=O)c1c(O)c3c(c(O)c1C2=O)C[C@@](O)(C(=O)CO)C[C@@H]3OC1CC(N(C)C)C(O)C(C)O1 (stereo not given in full) | 0.427 µM
56 | COC(=O)N/N=C(/CC1(O)C(=O)Nc2ccc([N+](=O)[O-])cc21)c1ccccc1 (stereo not given) | 91.6 µM

Test system: A498 renal
Assay: NCI anticancer screen, dose series, 48 h

Row | SMILES | TGI
57 | COc1cccc2c1C(=O)c1c(O)c3c(c(O)c1C2=O)C[C@@](O)(C(=O)CO)C[C@@H]3OC1CC(N(C)C)C(O)C(C)O1 (stereo not given in full) | < 0.0195 µM
58 | COC(=O)N/N=C(/CC1(O)C(=O)Nc2ccc([N+](=O)[O-])cc21)c1ccccc1 (stereo not given) | 25.8 µM

Test system: NCI-H226 lung
Assay: NCI anticancer screen, dose series, 48 h

Row | SMILES | TGI
59 | COC(=O)/C(C#N)=C1\CCC(OC)N1 (stereo not given) | > 100 µM
60 | O=C(O)[C@@H](NS(=O)(=O)c1ccc(F)cc1)c1ccccc1 | > 100 µM
